Data reported in patent US7067537B2, “Substituted thiazole derivatives bearing 3-pyridyl groups, process for preparing the same and use thereof” (Takeda Pharmaceutical Company Limited, priority 2000, dated 2006).
Structures can show the parent of a compound that is named as a salt.

Test system: not given
Test: not given
Details: not given

| melting point [°C] | SMILES |
| --- | --- |
| 106 to 108 | Cc1ccncc1-c1csc(-c2cccc(C(=O)N(C)C)c2)n1 [Example 27, N,N-dimethyl-3-[4-(4-methylpyridin-3-yl)-1,3-thiazol-2-yl]benzamide] |
| 201 | NC(=O)c1ccncc1-c1nc(-c2ccc(Cl)cc2)cs1 [Compound 147] |
| 217 | NS(=O)(=O)c1ccc(-c2csc(-c3cnccc3C(F)(F)F)n2)cc1 [Compound 155, 4-{2-[4-(trifluoromethyl)pyridin-3-yl]-1,3-thiazol-4-yl}benzenesulfonamide] |
| 205 to 207 | CC(=O)Nc1ccc(-c2nc(-c3cnccc3C)cs2)cc1 [Example 36, N-{4-[4-(4-methylpyridin-3-yl)-1,3-thiazol-2-yl]phenyl}acetamide] |
| > 300 | Cc1ccncc1-c1nc(-c2ccc(C(=O)O)cc2)cs1 [Compound 163, 4-[2-(4-methylpyridin-3-yl)-1,3-thiazol-4-yl]benzoic acid] |
| 202 | NC(=O)CNc1ccncc1-c1nc(-c2ccc(Cl)cc2)cs1 [Compound 144] |
| 69 to 71 | FC(F)(F)c1ccncc1-c1nc(-c2ccc(Br)cc2)cs1 [Compound 53] |
| 195 to 196 | CNC(=O)c1ccc(F)c(-c2nc(-c3cnccc3C)cs2)c1 [Example 33, 4-fluoro-N-methyl-3-[4-(4-methylpyridin-3-yl)-1,3-thiazol-2-yl]benzamide] |
| 195 | CN(C)C(=O)c1ccncc1-c1nc(-c2ccc(Cl)cc2)cs1 [Compound 146, 3-[4-(4-chlorophenyl)-1,3-thiazol-2-yl]-N,N-dimethylisonicotinamide] |
| 151 to 152 | CC(=O)Nc1ccc(C)c(-c2nc(-c3cnccc3C)cs2)c1 [Example 38, N-{4-methyl-3-[4-(4-methylpyridin-3-yl)-1,3-thiazol-2-yl]phenyl}acetamide] |
| 180 to 183 | Cc1ccncc1-c1csc(-c2ccc(F)cc2)n1 (as salt: HCl) [Compound 137, 3-[2-(4-fluorophenyl)-1,3-thiazol-4-yl]-4-methylpyridine] |
| 96 | Cc1ccc(-c2nc(-c3cnccc3C)sc2F)cc1 [Compound 153, 3-[5-fluoro-4-(4-methylphenyl)-1,3-thiazol-2-yl]-4-methylpyridine] |

More lines, now with the values behind:

| SMILES | melting point [°C] |
| --- | --- |
| CC(=O)Nc1cccc(-c2csc(-c3cnccc3C(F)(F)F)n2)c1.Cl | 154 to 155 |
| Cc1ccc(-c2csc(-c3cnccc3C)n2)cc1 [Compound 103] | 98 |
| Cc1ccncc1-c1nc(-c2ccc(S(N)(=O)=O)cc2)cs1 [Compound 154, 4-[2-(4-methylpyridin-3-yl)-1,3-thiazol-4-yl]benzenesulfonamide] | 219 |
| Cc1ccncc1-c1nc(-c2ccc(Cl)cc2)cs1 [Compound 74, 3-[4-(4-chlorophenyl)-1,3-thiazol-2-yl]-4-methylpyridine] | 119 |
| CNC(=O)c1cc(-c2nc(-c3cnccc3C)cs2)ccc1Cl [Example 34, 2-chloro-N-methyl-5-[4-(4-methylpyridin-3-yl)-1,3-thiazol-2-yl]benzamide] | 127 to 129 |
| CS(=O)(=O)Nc1cccc(-c2csc(-c3cnccc3C(F)(F)F)n2)c1 (as salt: hydrochloride) [Compound 161, N-(3-{2-[4-(trifluoromethyl)pyridin-3-yl]-1,3-thiazol-4-yl}phenyl)methanesulfonamide] | 162 to 165 |
| Cc1ccncc1-c1nc(-c2ccc(C(N)=O)cc2)cs1 [Compound 165, 4-[2-(4-methylpyridin-3-yl)-1,3-thiazol-4-yl]benzamide] | 222 to 225 |
| COc1ccc(-c2csc(-c3cnccc3C(F)(F)F)n2)cc1 (as salt: HCl) [Compound 64] | 93 to 95 |
| COc1ccncc1-c1nc(-c2ccc(C)cc2C)cs1 (as salt: HCl) [Compound 85] | 154 |
| Cc1ccncc1-c1csc(-c2cc(C(=O)N3CCCC3)ccc2C)n1 [Example 32, 4-methyl-3-{2-[2-methyl-5-(pyrrolidine-1-ylcarbonyl)phenyl]-1,3-thiazol-4-yl}pyridine] | 149 to 150 |
| COc1cccc(-c2csc(-c3cccnc3)n2)c1 (as salt: HBr) [Compound 49] | 231 to 233 |
| CNC(=O)c1ccc(C)c(-c2nc(-c3cnccc3C)cs2)c1 [Example 30, N, 4-dimethyl-3-[4-(4-methylpyridin-3-yl)-1,3-thiazol-2-yl]benzamide] | 140 to 143 |
| CNC(=O)c1ccncc1-c1nc(-c2ccc(Cl)cc2)cs1 [Compound 148] | 205 |
| Cc1ccncc1-c1nc(-c2ccc(Cl)cc2)c(Cl)s1 [Compound 150, 3-[5-chloro-4-(4-chlorophenyl)-1,3-thiazol-2-yl]-4-methylpyridine] | 146 |
| Cc1ccncc1-c1nc(-c2ccc(F)cc2)cs1 [Compound 78, 3-[4-(4-fluorophenyl)-1,3-thiazol-2-yl]-4-methylpyridine] | 129 |
| Fc1ccc(-c2nc(-c3cccnc3)cs2)cc1 (as salt: HBr) [Compound 136] | 225 to 227 |
| NC(=O)c1ccc(-c2csc(-c3cnccc3C(F)(F)F)n2)cc1 [Compound 164, 4-{2-[4-(trifluoromethyl)pyridin-3-yl]-1,3-thiazol-4-yl}benzamide] | 192 to 193 |
| CS(=O)(=O)Nc1ccc(-c2csc(-c3cnccc3C(F)(F)F)n2)cc1.Cl | 205 to 207 |
| Cc1ccncc1-c1csc(-c2cc(C(=O)N(C)C)ccc2C)n1 [Example 31, N,N,4-trimethyl-3-[4-(4-methylpyridin-3-yl)-1,3-thiazol-2-yl]benzamide] | 180 to 182 |
| Cc1ccncc1-c1csc(-c2ccc(S(N)(=O)=O)cc2)n1 [Compound 135, 4-[4-(4-methyl-pyridin-3-yl)-1,3-thiazol-2-yl]benzenesulfonamide] | 192 to 195 |
| Cc1ccncc1-c1csc(-c2ccc(C(N)=O)cc2)n1 [Example 28, 4-[4-(4-methylpyridin-3-yl)-1,3-thiazol-2-yl]benzamide] | 155 to 157 |
| Cc1ccncc1-c1csc(-c2cc(NC=O)ccc2C)n1 [Example 37, 4-methyl-3-[4-(4-methylpyridin-3-yl)-1,3-thiazol-2-yl]phenylformamide] | 127 to 129 |
| CC(C)(O)c1ccncc1-c1nc(-c2ccc(Cl)cc2)cs1 [Compound 145, 2-{3-[4-(4-chlorophenyl)-1,3-thiazol-2-yl]pyridin-4-yl}propan-2-ol] | 146 |
| Nc1ccc(-c2csc(-c3cnccc3C(F)(F)F)n2)cc1 [Compound 156, 4-{2-[4-(trifluoromethyl)pyridin-3-yl]-1,3-thiazol-4-yl}aniline] | 71 to 72 |
| CNC(=O)c1ccc(-c2nc(-c3cnccc3C)cs2)cc1 [Example 29, N-methyl-4-[4-(4-methylpyridin-3-yl)-1,3-thiazol-2-yl]benzamide] | 115 |

Target: T1, Rat C17,20-lyase (Rattus norvegicus, UniProt P11715)
T1 construct: The orchis was homogenized and centrifuged to prepare a microsome; from tissue; host or cells: testis (orchis) microsomes of 13-week-old male SD rat
T1 sequence (P11715 1-507): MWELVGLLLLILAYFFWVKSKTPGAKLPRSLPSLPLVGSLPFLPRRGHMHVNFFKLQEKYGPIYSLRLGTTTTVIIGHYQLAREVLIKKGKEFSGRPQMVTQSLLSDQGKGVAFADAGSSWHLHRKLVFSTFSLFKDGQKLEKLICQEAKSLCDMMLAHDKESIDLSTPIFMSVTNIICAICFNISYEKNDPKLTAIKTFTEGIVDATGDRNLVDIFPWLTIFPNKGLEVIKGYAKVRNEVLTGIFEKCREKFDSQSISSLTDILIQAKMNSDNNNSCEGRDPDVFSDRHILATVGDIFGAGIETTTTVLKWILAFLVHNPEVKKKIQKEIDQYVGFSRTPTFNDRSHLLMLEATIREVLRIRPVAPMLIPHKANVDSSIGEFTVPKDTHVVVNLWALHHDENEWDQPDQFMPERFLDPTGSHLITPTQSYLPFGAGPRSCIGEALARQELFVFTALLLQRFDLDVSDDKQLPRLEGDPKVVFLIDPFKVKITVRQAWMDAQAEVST
Test: Assay of steroid C17,20-lyase-inhibitory activity in rat (testis microsome, TLC of 3H-labelled products)
Type: biochemical
Details: microsome from orchis of 13-week-old male SD rat; [1.2-3H]-17α-hydroxyprogesterone 10 nM, NADPH; pH 7.4; 37° C., 7 min; read-out: In vitro enzyme inhibitory activity (IC50) Rat C17,20-lyase
Procedure: Assay of Steroid C17,20-lyase-inhibitory Activity in Rat
The assay was performed according to The Prostate, Vol. 26, 140–150 (1995). The orchis was removed from 13-week-old male SD rat. The orchis was homogenized and centrifuged to prepare a microsome. The [1.2-^3H]-17α-hydroxyprogesterone having a final concentration of 10 nM, NADPH solution and the test compound were was dissolved in a 100 mM phosphate buffer solution (10 μl, pH 7.4). Microsome protein (7 μg/10 μl) was added and the mixture was incubated at 37° C. for 7 min. Ethyl acetate (40 μl) was added and the mixture was centrifuged, and the substrate and the product (androstenedione and testosterone) in the supernatant were separated by silica gel thin layer chromatography (TLC). The spot was detected and quantitatively assayed by a BAS 2000 bioimage analyzer. Taking the production amount when the test compound was not added (control) as 100%, the concentration (IC50) of the compound necessary for 50% inhibition of the product amount relative to the control was calculated.

| IC50 [nM] | SMILES |
| --- | --- |
| 30 | COc1ccncc1-c1nc(-c2ccc(C)cc2C)cs1 [Compound 85] |
| < 10 | FC(F)(F)c1ccncc1-c1nc(-c2ccc(Br)cc2)cs1 [Compound 53] |

Continued, molecule first:

| SMILES | IC50 [nM] |
| --- | --- |
| Cc1ccc(-c2csc(-c3cnccc3C)n2)cc1 [Compound 103] | < 10 |
| COc1ccc(-c2csc(-c3cnccc3C(F)(F)F)n2)cc1 [Compound 64] | < 10 |
| Fc1ccc(-c2nc(-c3cccnc3)cs2)cc1 [Compound 136] | 14 |
| COc1cccc(-c2csc(-c3cccnc3)n2)c1 [Compound 49] | 33 |
| Cc1ccncc1-c1nc(-c2ccc(F)cc2)cs1 [Compound 78, 3-[4-(4-fluorophenyl)-1,3-thiazol-2-yl]-4-methylpyridine] | < 10 |
